We go through 20 compounds from patent US20100184790A1, “PYRROLO[2,3-B]PYRIDINE COMPOUNDS, AZAINDOLE COMPOUNDS USED FOR SYNTHESIZING SAID PYRROLO[2,3-B]PYRIDINE COMPOUNDS, METHODS FOR THE PRODUCTION THEREOF, AND USES THEREOF” (CENTRE NATIONAL DE LA RECHERCHE SCIENTIFIQUE, priority 2007, published 2010).

Where two headings read alike, the source gives them in different places.

For one data set, the target named is GSK-3α/β. The data set is described as follows: GSK-3α/β kinase assay (GS-1 peptide). Format: biochemical, porcine. Conditions: 15 μM ATP, 30° C. The method, then: After incubating at 30° C. for 30 (thirty) minutes, the 25 μl aliquots of the supernatant were treated as described above.
Another data set concerns the target DYRK1A (Rattus norvegicus, UniProt Q63470). The data set is described as follows: DYRK1A kinase assay (myelin basic protein). Format: biochemical.
A further data set has as its target CK1δ/ε. Nature of the data set: CK1δ/ε kinase assay (CK1-specific peptide). Conditions: 15 μM ATP, 30° C. It counts as biochemical, porcine. The method, then:
CK1δ/ε was purified from porcine brain by affinity chromatography on an immobilized axin fragment. It was assayed as described for CDK1 but using a CK1-specific peptide substrate.

The target of a further data set is CDK1/cyclin B. The data set is described as follows: CDK1/cyclin B kinase assay (histone H1, [γ-33P]-ATP). Conditions: read-out: IC50 CDK1/cyclin B, 15 μM ATP, 30° C.
Another data set deals with SH-SY5Y cells. Nature of the data set: Cell survival, MTS reduction, SH-SY5Y. Format: cell-based. Conditions: Homo sapiens, Table 2, exposed for 24 hours, read-out: IC50 survival of SH-SY5Y cells (MTS reduction). Here is the method:
The human neuroblastoma cell line SH-SY5Y was grown in a DMEM medium with L-glutamine originating from Invitrogen (Cergy Pontoise, France), antibiotics and 10% by volume of FCS originating from Invitrogen. […] These compounds were also tested at various concentrations with regard to their effects on SH-SY5Y and HEK293 cells. […] The IC50 values were calculated from the dose-response curves and are given in micromoles (mean±standard deviation of two independent measurements carried out in triplicate). […] The survival of the cells was estimated by the assaying of the degree of reduction of MTS induced by this exposure. […] The ICS© values were calculated from dose-response curves and are given in micromoles in table 3 below.
(In general: Formazan colour is commonly taken as a measure of viable cells.)

Another data set has as its target T1, CDK2/cyclin A (Homo sapiens, UniProt P24941).
T1 construct: made in house; host or cells: insect cells
Nature of the data set: CDK2/cyclin A kinase assay. Format: biochemical. Conditions: 15 μM ATP, 30° C., histone H1; read-out: IC50 CDK2/cyclinA. Here is the method: CDK2/cyclin A (human, recombinant, expressed in insect cells) was assayed as described for CDK1/cyclin B.

For another data set, the target named is CDK5/p25 (Homo sapiens, UniProt Q00535). Nature of the data set: CDK5/p25 kinase assay. It counts as biochemical, mammalian. The method, then: CDK5/p25 was reconstituted by mixing equal amounts of recombinant mammalian CDK5 and p25 expressed in E. coli as GST (glutathione S-transferase) fusion protein and purified by affinity chromatography on glutathione-agarose (vectors provided by Doctor L. H. Tsai) (p25 is a truncated version of p35, the 35-kDa CDK5 activator). Its activity was assayed with histone H1 in buffer C as described for CDK1/cyclin B.
CDK5/p25, sequence (Q00535 whole entry, species assumed, the tested form may be a part): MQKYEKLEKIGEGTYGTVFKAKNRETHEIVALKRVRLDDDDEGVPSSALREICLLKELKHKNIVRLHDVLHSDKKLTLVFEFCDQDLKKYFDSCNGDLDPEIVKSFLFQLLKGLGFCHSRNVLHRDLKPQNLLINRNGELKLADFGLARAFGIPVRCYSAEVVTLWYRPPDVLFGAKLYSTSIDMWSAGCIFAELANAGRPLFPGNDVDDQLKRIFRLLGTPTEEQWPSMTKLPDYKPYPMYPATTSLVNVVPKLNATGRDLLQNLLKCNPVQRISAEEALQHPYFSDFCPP
CDK5/p25, sequence (Q15078 99-307 partner limits assumed, species assumed): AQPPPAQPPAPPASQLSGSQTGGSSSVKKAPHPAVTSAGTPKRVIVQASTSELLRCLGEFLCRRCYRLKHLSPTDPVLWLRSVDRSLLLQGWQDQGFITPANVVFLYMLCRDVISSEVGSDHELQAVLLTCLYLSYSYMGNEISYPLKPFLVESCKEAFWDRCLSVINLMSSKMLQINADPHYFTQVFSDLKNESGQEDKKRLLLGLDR

A further data set concerns the target T2, CDK9/cyclin T (Homo sapiens, UniProt P50750).
T2 construct: made in house; host or cells: insect cells
The data set is described as follows: CDK9/cyclin T kinase assay. It counts as biochemical. Conditions: 15 μM ATP, 30° C., pRB fragment.

Where [1] appears, read: 15 μM ATP, 30° C., myelin basic protein, read-out: IC50 DYRK1A.
The mark [2] stands for this setting: 15 μM ATP, 30° C., histone H1, read-out: IC50 CDK5/p25.

T2 sequence (P50750 whole entry): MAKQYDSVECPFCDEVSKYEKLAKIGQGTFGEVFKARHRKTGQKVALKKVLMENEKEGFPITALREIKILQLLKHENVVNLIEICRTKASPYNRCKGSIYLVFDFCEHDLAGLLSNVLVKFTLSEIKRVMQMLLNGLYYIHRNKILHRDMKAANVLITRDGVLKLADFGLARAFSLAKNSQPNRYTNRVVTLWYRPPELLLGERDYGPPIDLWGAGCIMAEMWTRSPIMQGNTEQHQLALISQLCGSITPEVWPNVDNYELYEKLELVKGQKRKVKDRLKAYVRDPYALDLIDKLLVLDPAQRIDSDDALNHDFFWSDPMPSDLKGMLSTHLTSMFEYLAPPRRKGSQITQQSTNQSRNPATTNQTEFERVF
T2 sequence (O60563 whole entry partner): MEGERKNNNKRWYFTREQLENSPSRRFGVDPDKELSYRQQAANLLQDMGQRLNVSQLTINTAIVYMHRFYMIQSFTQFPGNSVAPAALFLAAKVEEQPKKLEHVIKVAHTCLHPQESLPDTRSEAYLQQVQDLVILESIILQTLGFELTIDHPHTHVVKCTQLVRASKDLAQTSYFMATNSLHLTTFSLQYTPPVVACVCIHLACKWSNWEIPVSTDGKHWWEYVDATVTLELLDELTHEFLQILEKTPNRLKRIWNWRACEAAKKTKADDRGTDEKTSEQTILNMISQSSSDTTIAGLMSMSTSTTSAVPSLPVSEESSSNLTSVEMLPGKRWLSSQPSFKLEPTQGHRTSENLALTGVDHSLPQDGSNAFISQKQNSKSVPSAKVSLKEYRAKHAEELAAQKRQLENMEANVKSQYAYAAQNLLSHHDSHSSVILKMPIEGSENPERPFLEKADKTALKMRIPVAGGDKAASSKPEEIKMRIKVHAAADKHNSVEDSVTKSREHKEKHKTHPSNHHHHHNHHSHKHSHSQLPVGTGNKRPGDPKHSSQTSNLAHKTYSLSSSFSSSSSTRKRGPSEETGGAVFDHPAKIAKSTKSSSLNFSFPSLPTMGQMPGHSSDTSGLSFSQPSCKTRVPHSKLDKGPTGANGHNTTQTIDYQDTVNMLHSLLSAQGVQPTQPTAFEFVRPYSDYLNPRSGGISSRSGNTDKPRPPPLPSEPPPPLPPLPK
Protocol for CDK1/cyclin B: Controls were prepared with appropriate dilutions of dimethyl sulfoxide.
After incubating at 30° C. for 30 minutes, 25 μl aliquots of the supernatant were spotted onto filters made of Whatman P81 phosphocellulose paper and, 20 seconds later, the filters were washed 5 times (for at least 5 (five) minutes each time) in a solution of 10 ml of phosphoric acid/liter of water. The wet filters were subjected to counting in the presence of an ACS scintillation fluid from Amersham.

`CCOc1ccnc2[nH]cc(-c3ccnc(N)n3)c12` [Meriolin 4, 3-[(2-amino)pyrimidin-4-yl]-4-ethoxy-1H-pyrrolo[2,3-b]pyridine]: the IC50 was 30 nM at GSK-3α/β; 32 nM on DYRK1A (setting [1]); 100 nM against CK1δ/ε; 10 nM on CDK1/cyclin B; 81 nM in the data set on SH-SY5Y cells.

As to `COc1cc(Br)nc2[nH]cc(-c3ccnc(N)n3)c12` [Meriolin 4n, 3-[(2-amino)pyrimidin-4-yl]-6-bromo-4-methoxy-1H-pyrrolo[2,3-b]pyridine], the melting point (in general, the temperature of the solid-liquid transition) is above 210 °C.

With `CCCOc1ccnc2[nH]cc(-c3ccnc(N)n3)c12` [Meriolin 5, 3-[(2-amino)pyrimidin-4-yl]-4-propoxy-1H-pyrrolo[2,3-b]pyridine], the IC50 at GSK-3α/β was found to be 25 nM; at DYRK1A (setting [1]), 37 nM; on CK1δ/ε it was 200 nM; on CDK1/cyclin B, 7 nM; with SH-SY5Y cells it was 26 nM.

Regarding `CC(C)Oc1ccnc2[nH]cc(-c3ccnc(N)n3)c12` [Meriolin 6, 3-[(2-amino)pyrimidin-4-yl]-4-(1-methylethoxy)-1H-pyrrolo[2,3-b]pyridine], the IC50 on GSK-3α/β was determined as 21 nM; at CK1δ/ε, 140 nM; at CDK1/cyclin B, 8 nM.

In the case of `COCCOc1ccnc2[nH]cc(-c3ccnc(N)n3)c12` [Meriolin 7, 3-(2-aminopyrimidin-4-yl)-4-(2-methoxyethoxyl)-1H-pyrrolo[2,3-b]pyridine], the IC50 against GSK-3α/β is 63000 nM; against CK1δ/ε, 100000 nM; at CDK2/cyclin A, above 10000 nM; on CDK1/cyclin B it was 35000 nM; with SH-SY5Y cells, above 100000 nM.

Turning to `Cn1cc(-c2ccnc(N)n2)c2c(O)ccnc21` [Meriolin 8, 3-[(2-amino)pyrimidin-4-yl]-4-hydroxy-1-methyl-1H-pyrrolo[2,3-b]pyridine], the IC50 at GSK-3α/β is 4600 nM; at DYRK1A (setting [1]) it was 1200 nM; at CK1δ/ε, 2300 nM; on CDK1/cyclin B, 1200 nM; with SH-SY5Y cells, above 30000 nM.

On to `COc1ccnc2c1c(-c1ccnc(N)n1)cn2C` [Meriolin 9, 3-[(2-amino)pyrimidin-4-yl]-4-methoxy-1-methyl-1H-pyrrolo[2,3-b]pyridine], for which the IC50 at CDK1/cyclin B came to 25000 nM.

For the compound `Nc1nccc(-c2c[nH]c3nccc(Cl)c23)n1` [Meriolin 10, 3-[(2-amino)pyrimidin-4-yl]-4-chloro-1H-pyrrolo[2,3-b]pyridine], the IC50 amounted to 2000 nM against GSK-3α/β; 130 nM at DYRK1A (setting [1]); 3000 nM on CK1δ/ε; 240 nM on CDK1/cyclin B; 1920 nM in the data set on SH-SY5Y cells.

For the compound `COc1ccnc2[nH]cc(-c3ccnc(SC)n3)c12` [Meriolin 12, 4-methoxy-3-[2-(methylsulfanyl)pyrimidin-4-yl]-1H-pyrrolo[2,3-b]pyridine, reference compound], the IC50 is 7000 nM on GSK-3α/β; 1000 nM at DYRK1A (setting [1]); 600 nM at CK1δ/ε; 1800 nM on CDK1/cyclin B; above 100000 nM in the data set with SH-SY5Y cells.

As to `Oc1ccnc2[nH]cc(-c3ccncn3)c12` [Meriolin 13, 3-(pyrimidin-4-yl)-4-hydroxy-1H-pyrrolo[2,3-b]pyridine], the IC50 on GSK-3α/β was 1800 nM; in the data set with SH-SY5Y cells, 28000 nM.

`COc1ccnc2[nH]cc(-c3ccncn3)c12` [Meriolin 14, 4-methoxy-3-(pyrimidin-4-yl)-1H-pyrrolo[2,3-b]pyridine]: the IC50 against GSK-3α/β was 1100 nM; on DYRK1A (setting [1]), 230 nM; on CK1δ/ε, 600 nM; at CDK1/cyclin B, 1300 nM; in the data set on SH-SY5Y cells, 10200 nM.

The compound `Nc1nccc(-c2c[nH]c3nccc(OCc4ccccc4)c23)n1` [Meriolin 15, 3-[(2-amino)pyrimidin-4-yl]-4-(benzyloxy)-1H-pyrrolo[2,3-b]pyridine] yielded a melting point above 210 °C. Further, the IC50 against GSK-3α/β was 3.3 nM. Moreover, on DYRK1A (setting [1]), the IC50 came out at 40 nM. For the same compound, at CDK5/p25 (setting [2]), the IC50 came out at 2 nM. On CK1δ/ε, this compound displayed an IC50 of 130 nM. Besides, the IC50 on CDK2/cyclin A amounted to 1.6 nM. The IC50 at CDK1/cyclin B stood at 2.3 nM. Also, the IC50 against CDK9/cyclin T was 7.2 nM. Moreover, the IC50 with SH-SY5Y cells was determined as 13 nM.

Take `Nc1nccc(-c2c[nH]c3nccc(OCC4CCCCC4)c23)n1` [Meriolin 16, 3-[(2-amino)pyrimidin-4-yl]-4-(cyclohexylmethoxy)-1H-pyrrolo[2,3-b]pyridine]: the melting point was above 210 °C. In addition, the IC50 at GSK-3α/β was determined as 6 nM. Besides, the IC50 at DYRK1A (setting [1]) came to 45 nM. Also, the IC50 at CDK5/p25 (setting [2]) stood at 3 nM. On CK1δ/ε, the IC50 is above 100 nM. Besides, the IC50 on CDK2/cyclin A came out at 1.2 nM. For the same compound, at CDK1/cyclin B, the IC50 is 2.2 nM. Also, in the data set with SH-SY5Y cells, the IC50 came out at 22 nM.

In turn, `Nc1nccc(-c2c[nH]c3nccc(OC4CCCCC4)c23)n1` [Meriolin 17, 3-[(2-amino)pyrimidin-4-yl]-4-(cyclohexyloxy)-1H-pyrrolo[2,3-b]pyridine] had a melting point above 210 °C. This compound also gave an IC50 against GSK-3α/β of 4.1 nM. For the same compound, the IC50 at DYRK1A (setting [1]) is 26 nM. Further, the IC50 at CDK5/p25 (setting [2]) was 2.1 nM. At CK1δ/ε, this compound displayed an IC50 above 100 nM. Also, the IC50 on CDK2/cyclin A was 2.1 nM. Besides, the IC50 on CDK1/cyclin B was 2.9 nM. The IC50 in the data set on SH-SY5Y cells amounted to 27 nM.

In the case of `CCCC#Cc1ccnc2[nH]cc(-c3ccnc(N)n3)c12` [Meriolin 18, 3-[(2-amino)pyrimidin-4-yl]-4-(pent-1-ynyl)-1H-pyrrolo[2,3-b]pyridine], the IC50 against GSK-3α/β turned out to be 82 nM; on DYRK1A (setting [1]) it was 20 nM; on CDK5/p25 (setting [2]) it was 4.5 nM; on CK1δ/ε it was 1300 nM; at CDK2/cyclin A it was 5 nM; at CDK1/cyclin B it was 11 nM. Besides, the IC50 with SH-SY5Y cells came to 100 nM.

In turn, `CCCCCc1ccnc2[nH]cc(-c3ccnc(N)n3)c12` [Meriolin 19, 3-[(2-amino)pyrimidin-4-yl]-4-pentyl-1H-pyrrolo[2,3-b]pyridine] showed a melting point above 210 °C. At GSK-3α/β, this compound displayed an IC50 of 1750 nM. Moreover, the IC50 on DYRK1A (setting [1]) was found to be 56 nM. For the same compound, the IC50 on CDK5/p25 (setting [2]) stood at 200 nM. This compound gave an IC50 at CK1δ/ε of 8100 nM. Moreover, the IC50 on CDK2/cyclin A was found to be 195 nM. The IC50 at CDK1/cyclin B worked out at 350 nM. For the same compound, the IC50 with SH-SY5Y cells came out at 13000 nM.

In turn, `Nc1nccc(-c2c[nH]c3nccc(C#Cc4ccccc4)c23)n1` [Meriolin 21, 3-[(2-amino)pyrimidin-4-yl]-4-(phenyleth-1-ynyl)-1H-pyrrolo[2,3-b]pyridine] registered a melting point above 210 °C.

Take `Nc1nccc(-c2c[nH]c3nccc(CCc4ccccc4)c23)n1` [Meriolin 22, 3-[(2-amino)pyrimidin-4-yl]-4-phenethyl-1H-pyrrolo[2,3-b]pyridine]: the melting point is 196 to 198 °C. Further, the IC50 on GSK-3α/β stood at 800 nM. Moreover, the IC50 at DYRK1A (setting [1]) is 73 nM. In addition, the IC50 at CDK5/p25 (setting [2]) came out at 130 nM. The IC50 at CDK2/cyclin A is 73 nM. Moreover, the IC50 at CDK1/cyclin B stood at 200 nM. Moreover, in the data set on SH-SY5Y cells, the IC50 is 2400 nM.

As to `Nc1nccc(-c2c[nH]c3nccc(-c4ccccc4)c23)n1` [Meriolin 23, 3-[(2-amino)pyrimidin-4-yl]-4-phenyl-1H-pyrrolo[2,3-b]pyridine], the melting point was above 210 °C. This compound also registered an IC50 against GSK-3α/β of 80 nM. The IC50 on DYRK1A (setting [1]) amounted to 50 nM. Besides, the IC50 at CDK5/p25 (setting [2]) turned out to be 7 nM. For the same compound, the IC50 on CDK2/cyclin A turned out to be 9 nM. Also, the IC50 on CDK1/cyclin B was 10 nM. Also, in the data set with SH-SY5Y cells, the IC50 stood at 88 nM.

Regarding `Nc1nccc(-c2c3c(O)ccnc3n3c(N)nccc23)n1` [Variolin B, reference compound], the IC50 against GSK-3α/β turned out to be 70 nM; against DYRK1A it was 80 nM; at CDK5/p25, 90 nM; on CK1δ/ε, 5 nM; on CDK2/cyclin A it was 80 nM; at CDK1/cyclin B it was 60 nM. For the same compound, the IC50 against CDK9/cyclin T stood at 26 nM; in the data set on SH-SY5Y cells, 240 nM.
